Reference: ChEMBL document CHEMBL1144869, “Introduction of a chemical constraint in a short peptide derived from human acidic fibroblast growth factor elicits mitogenic structural determinants” (2003)

What was measured:
NIH3T3 = experiment: Displacement of human acidic FGF from FGF receptor of mouse 3T3 cells at 0-200 uM; type: cell-based
Mus musculus = species: Mus musculus; experiment: Mitogenic effect on BALB/c 3T3 A31 fibroblast culture at 0-200 uM; type: functional; conditions: BALB/c3T3, read-out: ED50 (the source's name)

Row | Structure (SMILES) | ID50 (NIH3T3) [µM] | EC50 (Mus musculus) [µM]
1 | CC(=O)N[C@@H](Cc1c[nH]c2ccccc12)C(=O)N[C@@H](Cc1ccccc1)C(=O)N[C@H](C(=O)NCC(=O)N[C@@H](CC(C)C)C(=O)N[C@@H](CCCCN)C(=O)N[C@@H](CCCCN)C(=O)N[C@@H](CC(N)=O)C(=O)NCC(=O)N[C@@H](CO)C(=O)N[C@@H](CO)C(=O)N[C@@H](CCCCN)C(=O)N[C@@H](CCCN=C(N)N)C(=O)NCC(=O)N1CCC[C@@H]1C(=O)N[C@@H](CCCN=C(N)N)C(=O)N[C@H](C(N)=O)[C@@H](C)O)C(C)C | 50 | 
2 | CC(=O)N[C@@H](Cc1c[nH]c2ccccc12)C(=O)N[C@@H](Cc1ccccc1)C(=O)N[C@H](C(=O)NCC(=O)N[C@@H](CC(C)C)C(=O)N[C@@H](CCCCN)C(=O)N[C@@H](CCCCN)C(=O)N[C@@H](CC(N)=O)C(=O)NCC(=O)N[C@@H](CO)C(=O)N[C@@H](CO)C(=O)N[C@@H](CCCCN)C(=O)N[C@@H](CCCN=C(N)N)C(=O)NCC(=O)N1CCC[C@H]1C(=O)N[C@@H](CCCN=C(N)N)C(=O)N[C@H](C(N)=O)[C@@H](C)O)C(C)C |  | 20
